Data as given in patent US12227498B2, “Heterocyclic amine derivative and pharmaceutical composition comprising same” (Daewoong Pharmaceutical Co., Ltd., priority 2018, dated 2025).

Assays:
[1] = target: T1, ITK (Homo sapiens, UniProt Q08881); assay: Inhibitory activity against ITK, ADP-Glo + ITK Kinase enzyme system kit (Promega); assay type: biochemical; settings: ITK enzyme 0.4 ng/μl; 15 min preincubation at room temperature; 1 hour at 30° C.; luminescence; duplicate
T1 construct: purchased Promega Corporation
T1 sequence (Q08881 1-620): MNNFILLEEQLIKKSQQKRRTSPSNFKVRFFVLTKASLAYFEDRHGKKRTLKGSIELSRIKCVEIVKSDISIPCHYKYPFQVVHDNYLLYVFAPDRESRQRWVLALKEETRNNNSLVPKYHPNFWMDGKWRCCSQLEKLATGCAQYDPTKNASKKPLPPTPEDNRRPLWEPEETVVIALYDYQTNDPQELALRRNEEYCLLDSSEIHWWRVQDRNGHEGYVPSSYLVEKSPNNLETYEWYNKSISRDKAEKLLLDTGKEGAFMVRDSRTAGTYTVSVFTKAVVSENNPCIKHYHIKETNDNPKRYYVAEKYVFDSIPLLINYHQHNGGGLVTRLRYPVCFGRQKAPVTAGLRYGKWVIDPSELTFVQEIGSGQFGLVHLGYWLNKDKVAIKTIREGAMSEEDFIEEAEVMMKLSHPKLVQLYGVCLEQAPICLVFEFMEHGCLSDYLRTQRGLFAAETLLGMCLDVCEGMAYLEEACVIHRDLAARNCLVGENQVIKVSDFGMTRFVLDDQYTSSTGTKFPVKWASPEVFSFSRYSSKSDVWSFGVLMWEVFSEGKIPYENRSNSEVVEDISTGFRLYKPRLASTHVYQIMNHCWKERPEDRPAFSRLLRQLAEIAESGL
Protocol: (§1) Inhibitory activities against BTK and ITK were measured for the compounds prepared in the above Examples as follows.
The inhibitory activity against ITK was evaluated using ‘ADP-Glo™+ITK Kinase enzyme system’ kit (Promega Corporation). […] To the plate on which reactions were completed, 5 μl of substrate and 5 μl of ATP prepared so as to have a final concentration of […] were added and then allowed to react at 30° C. for 1 hour. All wells of the plate were treated with 25 μl of ADP-Glo™ reagent and then allowed to react at 30° C. for 40 minutes. After that, all wells were treated with 50 μl of kinase detection buffer, and then allowed to react at 30° C. for 30 minutes under light shielding conditions. For the plate on which all reactions were completed, luminescence was measured and the results were calculated. Evaluation was carried out in duplicate, and negative control and positive control were calculated depending on whether or not the enzyme was added without treatment of the compound. The IC50 was calculated based on the calculated values.

[2] = target: T2, BTK (Homo sapiens, UniProt Q06187); assay: Inhibitory activity against BTK, ADP-Glo + BTK Kinase enzyme system kit (Promega); assay type: biochemical; settings: BTK enzyme 1 ng/μl; ATP 10 µM; 15 min preincubation at room temperature; 1 hour at 30° C.; luminescence; duplicate
T2 construct: purchased Promega Corporation
T2 sequence (Q06187 whole entry): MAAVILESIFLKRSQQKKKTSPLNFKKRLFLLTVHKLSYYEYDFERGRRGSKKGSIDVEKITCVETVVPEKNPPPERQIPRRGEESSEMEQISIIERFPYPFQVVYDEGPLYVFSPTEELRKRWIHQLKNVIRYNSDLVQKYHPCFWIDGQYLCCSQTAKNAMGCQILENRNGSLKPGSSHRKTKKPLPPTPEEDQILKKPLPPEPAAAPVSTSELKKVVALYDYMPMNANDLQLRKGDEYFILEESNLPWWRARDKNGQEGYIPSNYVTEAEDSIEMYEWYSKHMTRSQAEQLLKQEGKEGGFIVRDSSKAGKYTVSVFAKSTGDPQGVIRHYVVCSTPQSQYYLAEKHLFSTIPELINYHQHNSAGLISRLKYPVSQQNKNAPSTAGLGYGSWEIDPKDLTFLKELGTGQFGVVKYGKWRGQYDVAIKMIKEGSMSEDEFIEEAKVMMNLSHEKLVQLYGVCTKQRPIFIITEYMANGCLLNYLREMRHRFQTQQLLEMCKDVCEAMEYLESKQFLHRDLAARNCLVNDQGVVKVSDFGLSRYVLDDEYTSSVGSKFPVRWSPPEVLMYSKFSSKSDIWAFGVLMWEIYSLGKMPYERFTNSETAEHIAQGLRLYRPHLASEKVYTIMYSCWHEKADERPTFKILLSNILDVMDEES
Protocol: as §1
The inhibitory activities against BTK were evaluated using ‘ADP-Glo™+BTK Kinase enzyme system’ kit (Promega Corporation). […] 5 μl of substrate and 5 μl of ATP prepared so as to have a final concentration of 10 µM were added to the plate on which reactions were completed, and then allowed to react at 30° C. for 1 hour. All wells of the plate were treated with 25 μl of ADP-Glo™ reagent and allowed to react at 30° C. for 40 minutes. After that, all wells were treated with 50 μl of kinase detection buffer, and then reacted at 30° C. for 30 minutes under light shielding conditions. For the plate on which all reactions were completed, luminescence was measured and the results were calculated. Evaluation was carried out in duplicate, and negative control and positive control were calculated depending on whether or not the enzyme was added without treatment of the compound. The IC50 was calculated based on the calculated values.

IC50 [1]	IC50 [2]	Structure (SMILES)
2.6 nM	3.1 nM	C=CC(=O)N1CCC(Nc2cc(CN3CCOCC3)cc(Nc3ncc(C)s3)n2)C1 (stereo not drawn) [Example 2, 1-(3-((6-((5-methylthiazol-2-yl)amino)-4-(morpholinomethyl)pyridin-2-yl)amino)pyrrolidin-1-yl) prop-2-en-1-one]
> 200 nM	> 200 nM	CC#CC(=O)N1CCC[C@@H](Nc2cc(CN3CCOCC3)cc(Nc3ncc(C)s3)n2)C1 [Example 13, (R)-1-(3-((6-((5-methylthiazol-2-yl)amino)-4-(morpholinomethyl)pyridin-2-yl)amino)piperidin-1-yl) but-2-yn-1-one]
15.6 nM	8.8 nM	C=CC(=O)N1CCC[C@H](Nc2nc(CN3CCCCC3)cc(Nc3ncc(C)s3)n2)C1 [Example 31, (S)-1-(3-((4-((5-methylthiazol-2-yl)amino)-6-(piperidin-1-ylmethyl)pyrimidin-2-yl)amino)piperidin-1-yl) prop-2-en-1-one]
